Laboratory results: US4849416A, “Treatment of conditions requiring enhanced oxygen availability to mammalian tissues” (Rorer Pharmaceutical Corporation, priority 1988, dated 1989)

Experiments:
2,3-DPG phosphatase = molecular target: T1, 2,3-DPG phosphatase (Homo sapiens, UniProt P07738); experiment: 2,3-Diphosphoglycerate phosphatase assay (radiochemical, release of 32P-phosphate from 2,3-DPG); assay type: biochemical; conditions: 110 μM 2,3-DPG, 5 μM phosphoglycolate, pH 7.5, 37° C., 20 minutes
T1 sequence (P07738 1-259): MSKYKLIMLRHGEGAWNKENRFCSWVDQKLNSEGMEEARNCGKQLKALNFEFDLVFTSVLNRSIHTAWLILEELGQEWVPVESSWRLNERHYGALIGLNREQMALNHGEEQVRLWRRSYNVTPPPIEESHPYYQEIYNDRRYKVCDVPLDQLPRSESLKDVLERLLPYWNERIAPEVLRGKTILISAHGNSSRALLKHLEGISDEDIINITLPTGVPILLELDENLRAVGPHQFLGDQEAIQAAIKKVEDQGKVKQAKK
Experimental: 1. 2,3-Diphosphoglycerate Phosphatase Assay
The activity of 2,3-DPG phosphatase was determined radiochemically using a method based on Rose et al., (J. Biol. Chem. 245, 3232-3241, 1970). In this method the activity of the phosphatase is measured by determining the release of inorganic phosphate from the substrate, 2,3-DPG. The test compounds were dissolved in dimethyl sulfoxide at 100 times the final concentration used and then added to the reaction mixture at the beginning of the assay period. In the control experiments equivalent concentration of dimethyl sulfoxide was used.
14 μg of 2,3-DPG phosphatase was incubated in 0.2 ml of N-tris-[Hydroxy-methyl]methyl-2-aminoethane-sulfonic acid [TES], at pH 7.5, containing 110 μM ^32 p-labeled 2,3-DPG (having a specific activity of 70 to 200 μCi/μmol), 5 μM phosphoglycolate and 5 μM mercaptoethanol at 37° C. for 20 minutes in the presence and absence of the test compound. at the end of incubation the reaction was stopped by the addition of 0.1 ml of 15% w/v trichloroacetic acid and the sample was centrifuged (Eppendorf microfuge, Model 5413) in order to remove protein preciptitates. Then 0.2 ml of the supernatant was withdrawn and mixed with 0.1 ml of 8 M sulfuric acid, 0.1 ml of 5% w/v ammonium molybdate and 0.6 ml of water. The mixture then was extracted with 2 ml of isobutanol/benzene (1:1,v/v) and then centrifuged to effect separation of the phases. 1 ml of the organic phase containing the extracted ^32 p-phosphate was counted in a scintillation counter (Beckman, Model LS 8,000) using a program for ^32 p radioactivity. The activity of the enzyme was expressed as number of mole phosphate released per minute.
From the data obtained using the radiochemical method, percent inhibition of 2,3-DPG phosphatase was calculated. […] Representative inhibitory activity is shown for sulfasalazine in Table I.

human red blood cells = experiment: Determination of 2,3-diphosphoglyceric acid content in human red blood cells; assay type: cell-based
Experimental: 2. Determination of 2,3-Diphosphoglyceric Acid Content in Human Red Blood Cells Blood samples from healthy subjects were collected in heparnized tubes and were centrifuged for 10 minutes at 400 xg. The plasma and buffy layer containing while cells and platelets was removed. The red blood cells were washed three times in Krebs Ringer Bicarbonate buffer supplemented with 2.5 mg/ml bovine serum albumin. The washed cells were suspended in the same buffer in a ratio of 1 cell to 4 buffer v/v. The cell suspension was incubated in siliconized glass beakers in the absence and presence of the test compound at 37° C. in air, supplemented with 5% v/v carbon dioxide. After incubation, 1 ml of the blood sample was mixed with 1 ml of 12% w/v trichloroacetic acid. The mixture was left at 4° C. for 10 minutes and then was clarified by centrifugation. The 2,3-DPG content in the supernatant was quantified using a Sigma assay kit based on the method described by Lowry et al, J. Biol. Chem. 239, 18, 1964. Inhibition of 2,3-diphosphoglyceric acid degredation in human red blood cells was also conducted on compounds of the present invention and is shown in Table II for sulfasalazine.

[1] = system: 2,3-diphosphoglycerate phosphatase; conditions: at optimal concentrations; cited from earlier work

Compound | inhibition at 20 µM (2,3-DPG phosphatase; sulfasalazine 20 μM) [%] | inhibition at 100 µM (2,3-DPG phosphatase; sulfasalazine 100 μM) [%] | inhibition at 500 µM (2,3-DPG phosphatase; sulfasalazine 500 μM) [%] | inhibition at 1000 µM (2,3-DPG phosphatase; sulfasalazine 1000 μM) [%] | 2,3-diphosphoglyceric acid content (human red blood cells; sulfasalazine 0.5 mM, incubation period 0 hrs, 37° C.) [μmole/ml RBC] | 2,3-diphosphoglyceric acid content (human red blood cells; sulfasalazine 0.5 mM, incubation period 3 hrs, 37° C. (control 3.7)) [μmole/ml RBC] | 2,3-diphosphoglyceric acid content (human red blood cells; sulfasalazine 0.5 mM, incubation period 6 hrs, 37° C. (control 2.4)) [μmole/ml RBC] | 2,3-diphosphoglyceric acid content (human red blood cells; sulfasalazine 1.0 mM, incubation period 0 hrs, 37° C.) [μmole/ml RBC] | 2,3-diphosphoglyceric acid content (human red blood cells; sulfasalazine 1.0 mM, incubation period 3 hrs, 37° C. (control 3.7)) [μmole/ml RBC] | 2,3-diphosphoglyceric acid content (human red blood cells; sulfasalazine 1.0 mM, incubation period 6 hrs, 37° C. (control 2.4)) [μmole/ml RBC] | enhancement of the activity of 2,3-diphosphoglycerate phosphatase [1]
O=C(O)c1cc(N=Nc2ccc(S(=O)(=O)Nc3ccccn3)cc2)ccc1O [sulfasalazine, 5-[[p-(2-pyridylsulfamoyl)phenyl]azo]salicyclic acid] | 23 | 57 | 86 | 90 | 4.4 | 3.9 | 3.0 | 4.4 | 4.1 | 3.5 | –
O=C(O)COP(=O)(O)O [2-Phosphoglycolate] | – | – | – | – | – | – | – | – | – | – | about 1600 fold
